The values below come from ChEMBL document CHEMBL1133079, “Synthesis and antibacterial activity of novel 6-O-substituted erythromycin A derivatives” (2000).

Type in all cases: functional
The subject of test [1] is Staphylococcus aureus. In words: In vitro minimum inhibitory concentration against Staphylococcus aureus A5177.
The test system of test [2] is Streptococcus pyogenes. In words: In vitro minimum inhibitory concentration against Streptococcus pyogenes PIU 2548 using standard agar dilution method. (In agar dilution the substance is mixed into plates at graded concentrations.)
In the next test the test system is Haemophilus influenzae. In words: In vitro minimum inhibitory concentration against Haemophilus influenzae DILL using standard agar dilution method.
The test system of test [3] is Streptococcus pneumoniae. In words: In vitro minimum inhibitory concentration against Streptococcus pneumoniae 5649.
In test [4] the test system is Streptococcus pyogenes. In words: In vitro minimum inhibitory concentration against Streptococcus pyogenes 930 using standard agar dilution method.
For test [5], the system named is Streptococcus pneumoniae. In words: In vitro minimum inhibitory concentration against Streptococcus pneumoniae ATCC 6303.
Test [6] deals with Staphylococcus aureus. In words: In vitro minimum inhibitory concentration against Staphylococcus aureus 6538P using standard agar dilution method.
In test [7] the test system is Streptococcus pneumoniae. In words: In vitro minimum inhibitory concentration against Streptococcus pneumoniae 5737.
Test [8] has as its system Streptococcus pyogenes. In words: In vitro minimum inhibitory concentration against Streptococcus pyogenes EES61 using standard agar dilution method.

In brackets after ≈: the same amount, converted by molar mass. Bounds are passed on as bounds.

Turning to `CC[C@H]1OC(=O)[C@H](C)[C@@H](O[C@H]2C[C@@](C)(OC)[C@@H](O)[C@H](C)O2)[C@H](C)[C@@H](O[C@@H]2O[C@H](C)C[C@H](N(C)C)[C@H]2O)[C@@](C)(OCc2ccc(F)cc2)C[C@@H](C)C(=O)[C@H](C)[C@@H](O)[C@]1(C)O`, the MIC in the test with Staphylococcus aureus [1] came to 12.5 µg/mL (≈ 14.8 µM); against Streptococcus pyogenes [2], 8 µg/mL (≈ 9.5 µM); against Haemophilus influenzae it was 64 µg/mL (≈ 76 µM); against Streptococcus pneumoniae [3], 8 µg/mL (≈ 9.5 µM); in the test with Streptococcus pyogenes [4] it was 8 µg/mL (≈ 9.5 µM); in the test on Streptococcus pneumoniae [5], 1 µg/mL (≈ 1.19 µM). Besides, the MIC came out at 3.1 µg/mL (≈ 3.68 µM) in the test with Staphylococcus aureus [6], 8 µg/mL (≈ 9.5 µM) with Streptococcus pneumoniae [7] and 1 µg/mL (≈ 1.19 µM) with Streptococcus pyogenes [8].
As for `CC[C@H]1OC(=O)[C@H](C)[C@@H](O[C@H]2C[C@@](C)(OC)[C@@H](O)[C@H](C)O2)[C@H](C)[C@@H](O[C@@H]2O[C@H](C)C[C@H](N(C)C)[C@H]2O)[C@@](C)(OC/C=N/O)C[C@@H](C)C(=O)[C@H](C)[C@@H](O)[C@]1(C)O`, the MIC was 64 µg/mL (≈ 80.9 µM) in the test on Streptococcus pyogenes [2]; 16 µg/mL (≈ 20.2 µM) with Haemophilus influenzae; 32 µg/mL (≈ 40.5 µM) in the test with Streptococcus pneumoniae [3]; 0.06 µg/mL (≈ 0.0759 µM) in the test on Streptococcus pneumoniae [5]; 0.2 µg/mL (≈ 0.253 µM) with Staphylococcus aureus [6]; > 128 µg/mL against Streptococcus pneumoniae [7]. The MIC against Streptococcus pyogenes [8] was determined as 0.015 µg/mL (≈ 0.019 µM).
Turning to `CC[C@H]1OC(=O)[C@H](C)[C@@H](O[C@H]2C[C@@](C)(OC)[C@@H](O)[C@H](C)O2)[C@H](C)[C@@H](O[C@@H]2O[C@H](C)C[C@H](N(C)C)[C@H]2O)[C@@](C)(OCCNCc2ccccc2)C[C@@H](C)C(=O)[C@H](C)[C@@H](O)[C@]1(C)O`, the MIC was 12.5 µg/mL (≈ 14.4 µM) against Staphylococcus aureus [1]; 64 µg/mL (≈ 73.8 µM) against Streptococcus pyogenes [2]; 8 µg/mL (≈ 9.23 µM) in the test on Haemophilus influenzae; 32 µg/mL (≈ 36.9 µM) in the test on Streptococcus pneumoniae [3]; > 128 µg/mL in the test on Streptococcus pyogenes [4]; 0.125 µg/mL (≈ 0.144 µM) against Streptococcus pneumoniae [5]. Besides, the MIC against Staphylococcus aureus [6] was 0.78 µg/mL (≈ 0.9 µM); in the test with Streptococcus pneumoniae [7] it was > 128 µg/mL; in the test on Streptococcus pyogenes [8] it was 0.25 µg/mL (≈ 0.288 µM).
Take `CC[C@H]1OC(=O)[C@H](C)[C@@H](O[C@H]2C[C@@](C)(OC)[C@@H](O)[C@H](C)O2)[C@H](C)[C@@H](O[C@@H]2O[C@H](C)C[C@H](N(C)C)[C@H]2O)[C@@](C)(OCC=O)C[C@@H](C)C(=O)[C@H](C)[C@@H](O)[C@]1(C)O`: the MIC against Staphylococcus aureus [1] is 25 µg/mL (≈ 32.2 µM); against Streptococcus pyogenes [2], 128 µg/mL (≈ 165 µM); against Haemophilus influenzae it was 8 µg/mL (≈ 10.3 µM); against Streptococcus pneumoniae [3], 64 µg/mL (≈ 82.5 µM); against Streptococcus pyogenes [4], > 128 µg/mL; against Streptococcus pneumoniae [5], 0.5 µg/mL (≈ 0.644 µM). Also, the MIC in the test with Staphylococcus aureus [6] is 0.78 µg/mL (≈ 1.01 µM); with Streptococcus pneumoniae [7], > 128 µg/mL; against Streptococcus pyogenes [8] it was 0.06 µg/mL (≈ 0.0773 µM).
Regarding `CC[C@H]1OC(=O)[C@H](C)[C@@H](O[C@H]2C[C@@](C)(OC)[C@@H](O)[C@H](C)O2)[C@H](C)[C@@H](O[C@@H]2O[C@H](C)C[C@H](N(C)C)[C@H]2O)[C@@](C)(OC/C=N/Nc2ccccn2)C[C@@H](C)C(=O)[C@H](C)[C@@H](O)[C@]1(C)O`, the MIC against Staphylococcus aureus [1] is 25 µg/mL (≈ 28.8 µM); with Streptococcus pyogenes [2], 128 µg/mL (≈ 148 µM); against Haemophilus influenzae, 8 µg/mL (≈ 9.23 µM); with Streptococcus pneumoniae [3], 64 µg/mL (≈ 73.8 µM); with Streptococcus pyogenes [4] it was > 128 µg/mL; with Streptococcus pneumoniae [5] it was 0.25 µg/mL (≈ 0.288 µM). Also, the MIC in the test on Staphylococcus aureus [6] was 0.78 µg/mL (≈ 0.9 µM); in the test on Streptococcus pneumoniae [7], > 128 µg/mL; with Streptococcus pyogenes [8], 0.125 µg/mL (≈ 0.144 µM).
In the case of `C=CCO[C@@]1(C)C[C@@H](C)C(=O)[C@H](C)[C@@H](O)[C@](C)(O)[C@@H](CC)OC(=O)[C@H](C)[C@@H](O[C@H]2C[C@@](C)(OC)[C@@H](O)[C@H](C)O2)[C@H](C)[C@H]1O[C@@H]1O[C@H](C)C[C@H](N(C)C)[C@H]1O`, the MIC with Staphylococcus aureus [1] is 12.5 µg/mL (≈ 16.1 µM); in the test on Streptococcus pyogenes [2], 64 µg/mL (≈ 82.7 µM); in the test on Haemophilus influenzae it was 32 µg/mL (≈ 41.3 µM); against Streptococcus pyogenes [4] it was > 128 µg/mL; against Staphylococcus aureus [6] it was 0.78 µg/mL (≈ 1.01 µM).
On to `CC[C@H]1OC(=O)[C@H](C)[C@@H](O[C@H]2C[C@@](C)(OC)[C@@H](O)[C@H](C)O2)[C@H](C)[C@@H](O[C@@H]2O[C@H](C)C[C@H](N(C)C)[C@H]2O)[C@@](C)(OCC(O)CNCCc2ccccc2)C[C@@H](C)C(=O)[C@H](C)[C@@H](O)[C@]1(C)O` (some centres undefined), for which the MIC with Staphylococcus aureus [1] was 6.2 µg/mL (≈ 6.8 µM); against Streptococcus pyogenes [2], 16 µg/mL (≈ 17.6 µM); with Haemophilus influenzae it was 4 µg/mL (≈ 4.39 µM); against Streptococcus pneumoniae [3], 32 µg/mL (≈ 35.1 µM); against Streptococcus pyogenes [4] it was > 64 µg/mL; in the test on Streptococcus pneumoniae [5] it was 0.008 µg/mL (≈ 0.00878 µM). Moreover, the values for the MIC against Staphylococcus aureus [6], with Streptococcus pneumoniae [7] and in the test on Streptococcus pyogenes [8] were 0.2 µg/mL (≈ 0.219 µM), 32 µg/mL (≈ 35.1 µM) and 0.03 µg/mL (≈ 0.0329 µM), respectively.
Take `CC[C@H]1OC(=O)[C@H](C)[C@@H](O[C@H]2C[C@@](C)(OC)[C@@H](O)[C@H](C)O2)[C@H](C)[C@@H](O[C@@H]2O[C@H](C)C[C@H](N(C)C)[C@H]2O)[C@@](C)(OCC(O)CNCc2ccccc2)C[C@@H](C)C(=O)[C@H](C)[C@@H](O)[C@]1(C)O` (some centres undefined): the MIC is 6.2 µg/mL (≈ 6.91 µM) with Staphylococcus aureus [1]; 8 µg/mL (≈ 8.92 µM) in the test on Haemophilus influenzae; 64 µg/mL (≈ 71.3 µM) against Streptococcus pneumoniae [3]; 0.125 µg/mL (≈ 0.139 µM) with Streptococcus pneumoniae [5]; 0.39 µg/mL (≈ 0.435 µM) in the test with Staphylococcus aureus [6]; > 128 µg/mL in the test with Streptococcus pneumoniae [7]. In the test with Streptococcus pyogenes [8], this molecule had an MIC of 0.125 µg/mL (≈ 0.139 µM).
